# From patent US9809552B2, “Piperazine derivatives as FASN inhibitors” (Merck Patent GmbH, priority 2013, dated 2017)
# Target: T1, human recombinant full-length fatty acid synthase (FASN) (Homo sapiens, UniProt P49327)
# T1 construct: human recombinant full-length fatty acid synthase (produced in-house in SF9 cells); made in house; host or cells: SF9 insect cells
# Experiment: Biochemical activity testing of human fatty acid synthase FASN (NADPH fluorescence intensity enzyme assay)
# Conditions: 15 min pre-incubation, 30 min reaction at room temperature
# Text: Biochemical activity testing of human fatty acid synthase FASN
# Fatty acid synthase FASN is a multifunctional enzyme with seven catalytic activities thereby synthesising long chain fatty acids especially palmitoyl-CoA in the presence of co-factor NADPH starting from the substrates acetyl-CoA and malonyl-CoA. The reductive synthesis is realized by the oxidation of NADPH to NADP. Since NADPH has a high fluorescence intensity quantum yield compared to NADP with excitation at 340 nm and emission at 460 nm, the reaction can be monitored via the decrease in fluorescence intensity. The biochemical FASN activity testing was performed as 384 well two-time-point kinetic fluorescence intensity assay format in Greiner low volume medium binding 384-well black microtiter plates in a total assay volume of 8 μl and was used for high throughput screen. In each well 3 μl 40 nM human recombinant full-length fatty acid synthase (produced in-house in SF9 cells) were dispensed in the following assay buffer: 50 mM potassium phosphate buffer pH 7.0, 0.005% (w/v) BSA, 2 mM Glutathione, 0.02% Tween-20. Then 2 μl of 200 μM NADPH in assay buffer were added, followed by the addition of the test compounds in 10 dilution concentrations starting with 30 μM (final concentration) to get a final DMSO content of 1% (v/v). The mixture was incubated for at least 15 min at room temperature. After the pre-incubation the enzymatic reaction was started by the addition of 2 μl substrate solution (80 μM acetyl-CoA, 240 μM malonyl-CoA). A first fluorescence intensity measurement (time point one) was performed with an Envision multimode reader (Perkin Elmer LAS Germany GmbH) at excitation wavelength 340 nm (lamp mode) and emission wavelength 460 nm. The reaction was incubated for 30 minutes at room temperature. After this the fluorescence intensity was measured again in the Envision using the same parameters as described above (second time point measurement). The data were analysed by subtracting the first time point measurement value from the second time point measurement value (after the enzymatic reaction). The differences of the emission signals were determined. These reflect directly the conversion rate of NADPH. The full value used was the inhibitor-free reaction. A pharmacological zero value was used like GSK837149A (Sigma-Aldrich) in a final concentration of 5-10 μM. The inhibitory values (IC50) were determined using either the program Symyx Assay Explorer® or Condosseo® from GeneData.
# T1 sequence (P49327 whole entry): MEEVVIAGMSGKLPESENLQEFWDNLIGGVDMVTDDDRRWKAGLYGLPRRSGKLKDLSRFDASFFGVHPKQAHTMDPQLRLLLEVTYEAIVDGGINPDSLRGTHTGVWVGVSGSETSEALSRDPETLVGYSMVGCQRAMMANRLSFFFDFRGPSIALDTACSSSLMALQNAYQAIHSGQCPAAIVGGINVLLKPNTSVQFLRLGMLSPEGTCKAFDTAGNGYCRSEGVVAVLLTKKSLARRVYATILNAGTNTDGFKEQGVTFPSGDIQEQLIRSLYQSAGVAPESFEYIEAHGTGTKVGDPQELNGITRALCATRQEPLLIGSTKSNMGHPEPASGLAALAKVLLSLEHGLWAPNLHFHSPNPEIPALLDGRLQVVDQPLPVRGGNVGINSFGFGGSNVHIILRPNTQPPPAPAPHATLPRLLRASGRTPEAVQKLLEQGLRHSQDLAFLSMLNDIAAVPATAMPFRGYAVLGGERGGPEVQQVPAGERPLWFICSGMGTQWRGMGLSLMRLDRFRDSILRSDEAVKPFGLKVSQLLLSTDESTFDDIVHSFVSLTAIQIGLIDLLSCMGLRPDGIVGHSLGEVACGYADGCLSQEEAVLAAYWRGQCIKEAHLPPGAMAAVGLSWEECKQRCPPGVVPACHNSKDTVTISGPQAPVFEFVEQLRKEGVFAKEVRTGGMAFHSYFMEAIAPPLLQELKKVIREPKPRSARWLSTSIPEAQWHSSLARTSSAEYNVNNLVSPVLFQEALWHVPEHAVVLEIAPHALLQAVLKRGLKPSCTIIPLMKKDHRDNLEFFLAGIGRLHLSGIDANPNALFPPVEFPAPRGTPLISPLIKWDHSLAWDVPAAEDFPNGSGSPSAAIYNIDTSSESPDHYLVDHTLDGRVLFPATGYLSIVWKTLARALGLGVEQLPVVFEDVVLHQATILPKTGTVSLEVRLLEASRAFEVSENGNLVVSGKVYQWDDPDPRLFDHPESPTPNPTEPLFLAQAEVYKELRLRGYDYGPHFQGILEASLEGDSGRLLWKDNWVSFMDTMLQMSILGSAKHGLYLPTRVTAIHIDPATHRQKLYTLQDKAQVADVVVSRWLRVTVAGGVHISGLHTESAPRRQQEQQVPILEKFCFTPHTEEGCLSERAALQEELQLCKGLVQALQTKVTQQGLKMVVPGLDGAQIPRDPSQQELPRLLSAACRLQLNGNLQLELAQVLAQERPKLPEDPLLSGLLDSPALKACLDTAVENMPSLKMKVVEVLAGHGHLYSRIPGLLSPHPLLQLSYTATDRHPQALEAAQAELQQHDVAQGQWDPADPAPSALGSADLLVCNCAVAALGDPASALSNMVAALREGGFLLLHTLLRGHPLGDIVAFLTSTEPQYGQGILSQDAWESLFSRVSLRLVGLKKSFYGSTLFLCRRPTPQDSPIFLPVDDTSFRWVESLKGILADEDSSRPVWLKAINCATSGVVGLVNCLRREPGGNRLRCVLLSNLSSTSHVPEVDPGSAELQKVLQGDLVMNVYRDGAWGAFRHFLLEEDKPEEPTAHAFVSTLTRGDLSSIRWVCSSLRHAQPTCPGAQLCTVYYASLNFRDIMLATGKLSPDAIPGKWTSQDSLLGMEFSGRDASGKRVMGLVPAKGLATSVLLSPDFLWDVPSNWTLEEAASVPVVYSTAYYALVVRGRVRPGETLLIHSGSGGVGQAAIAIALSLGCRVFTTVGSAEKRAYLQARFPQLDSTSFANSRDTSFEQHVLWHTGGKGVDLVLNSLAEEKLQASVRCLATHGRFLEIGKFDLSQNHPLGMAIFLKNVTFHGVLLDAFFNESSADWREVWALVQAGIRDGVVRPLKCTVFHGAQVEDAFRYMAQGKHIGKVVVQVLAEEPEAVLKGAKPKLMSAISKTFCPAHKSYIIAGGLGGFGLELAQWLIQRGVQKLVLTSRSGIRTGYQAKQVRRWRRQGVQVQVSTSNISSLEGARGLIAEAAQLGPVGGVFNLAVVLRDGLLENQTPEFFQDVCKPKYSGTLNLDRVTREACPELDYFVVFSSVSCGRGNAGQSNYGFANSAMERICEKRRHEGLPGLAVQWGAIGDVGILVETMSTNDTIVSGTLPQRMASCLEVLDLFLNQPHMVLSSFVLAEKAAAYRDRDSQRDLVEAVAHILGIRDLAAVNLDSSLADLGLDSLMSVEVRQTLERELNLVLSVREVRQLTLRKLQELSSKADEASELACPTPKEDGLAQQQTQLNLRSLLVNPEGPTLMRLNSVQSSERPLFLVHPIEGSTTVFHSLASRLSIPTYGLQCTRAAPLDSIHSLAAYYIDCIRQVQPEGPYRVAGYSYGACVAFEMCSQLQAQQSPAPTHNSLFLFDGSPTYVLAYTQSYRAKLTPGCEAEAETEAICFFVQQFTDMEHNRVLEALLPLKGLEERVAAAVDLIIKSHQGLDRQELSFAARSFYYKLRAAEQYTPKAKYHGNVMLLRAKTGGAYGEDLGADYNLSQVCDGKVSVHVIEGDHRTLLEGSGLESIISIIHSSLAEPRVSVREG
row,IC50 [nM],SMILES
1,< 300,"CCC(=O)N1CCN(C(=O)c2ccc(-c3ccc4cnccc4c3)cc2)CC1 [Compound A1, 1-[4-(4-isoquinolin-6-yl-benzoyl)-piperazin-1-yl]-propan-1-one]"
2,300 to 3000,"CC(=O)N1CCN(C(=O)c2ccc(-c3ccc4cnccc4c3)cc2)CC1 [Compound A2, 1-[4-(4-isoquinolin-6-yl-benzoyl)-piperazin-1-yl]ethanone]"
3,< 300,"O=C(c1ccc(-c2ccc3cnccc3c2)cc1)N1CCN(C(=O)C2CC2)CC1 [Compound A3, (4-cyclopropanecarbonyl-piperazin-1-yl)-(4-isoquinolin-6-yl-phenyl)-methanone]"
4,300 to 3000,"CCCC(=O)N1CCN(C(=O)c2ccc(-c3ccc4cnc(OC)cc4c3)cc2)CC1 [Compound A4, 1-{4-[4-(3-methoxy-isoquinolin-6-yl)-benzoyl]-piperazin-1-yl}-butan-1-one]"
5,< 300,"CCCCC(=O)N1CCN(C(=O)c2ccc(-c3ccc4cnccc4c3)cc2)CC1 [Compound A5, 1-[4-(4-isoquinolin-6-yl-benzoyl)-piperazin-1-yl]-pentan-1-one]"
6,< 300,"CCCC(=O)N1CCN(C(=O)c2ccc(-c3ccc4cnccc4c3)cc2)CC1 [Compound A6, 1-[4-(4-isoquinolin-6-yl-benzoyl)-piperazin-1-yl]-butan-1-one]"
7,< 300,"CCC(=O)N1CCN(C(=O)c2ccc(-c3ccc4c[n+]([O-])ccc4c3)cc2)CC1 [Compound A7, 1-{4-[4-(2-oxy-isoquinolin-6-yl)-benzoyl]-piperazin-1-yl}-propan-1-one]"
